Test results reported in patent US20050147608A1, “Novel regulatory mechanisms of NF-kappaB” (Beth Israel Deaconess Medical Center, Inc., priority 2003, published 2005).
Where a SMILES comes first, the peptide text is derived from it. The star is where a group is joined. Cbz = O=C(OCc1ccccc1)*

Tests used:
p65-T254A [1] = test: Protein degradation assay (cycloheximide chase, immunoblot) of p65-T254A in 293T cells; type: cell-based; parameters: dose or concentration left out as unconfirmed
Method: (A, B) Stabilization of p65-T254A by a proteosome inhibitor. 293T cells expressing Xpress-p65-T254A or Xpress-LacZ were treated with cycloheximide and MG-132 ([…]) or the solvent DMSO for the times indicated, followed by immunoblot with anti-Xpress antibody (A), followed by semi-quantification with Imagequant (B). (C) Ubiquitination of p65 in vitro. In vitro translated 35 S-labeled p65 was incubated with ubiquitin in the presence or absence of E1 and UbcH5a for times indicated, followed by separation on SDS-PAGE and autoradiography. (D) Ubiquitination of the GST-p65 fragment B, but A or C. GST-p65 truncation mutants (FIG. 3D) were incubated with HeLa S-100 extracts, ubiquitin, E1 and either UbcH5a or UbcH6 for 3 hrs, followed by GST pulldown and immunoblotting with anti-ubiquitin antibody. (E) Ubiquitination of GST-p65 fragment B via UbcH5a. GST-p65-truncated mutant B was subjected to ubiquitination assay in vitro using different E2 enzymes.
293T cells were transfected with Xpress-tagged p65. A plasmid encoding Xpress-LacZ was used as a transfection control. […] Cells were harvested at each time points, and total lysates were analyzed by immunoblotting with anti-Xpress antibody (Invitrogene). The blots were scanned and semi-quantified by using the software NIH image 1.6.2, as described (Ryo et al., 2001). […]

p65 [2] = test: p65 protein stability in Pin1−/− MEFs; type: cell-based, mouse
Description: The ability of Pin1 to regulate the protein stability of p65 led to another surprising finding in this study, which is the ubiquitin-mediated proteolysis of p65. Although the ubiquitin-mediated proteolysis of IkBα has been well characterized (Baeuerle and Baltimore, 1996; Ghosh et al., 1998), a similar regulation has not been previously described for NF-kB itself. […] Furthermore, even in Pin1+/+ cells, the point mutation in p65 (T254A) that disrupts its binding to Pin1 converts p65 from a stable into an extremely unstable protein due to rapid nuclear export and subsequent protein degradation.

p65-T254A [3] = test: Co-immunoprecipitation of Pin1 with Xpress-tagged p65-T254A in 293T cells after proteasome inhibition; type: cell-based; details: 20 μM MG-132 for 12 hr
Method: (G) Failure of Pin1 to bind p65-T254A. 293T cells were co-transfected with Pin1 and Xpress-tagged p65 or its T254A mutant. After cells were incubated with 20 μM MG-132 for 12 hr, they were subjected to immunoprecipitation analysis with anti-Xpress antibody, followed by immunoblot with anti-p65 or anti-Pin1 antibodies.
(§1) Cells were arrested at the G1/S phase or the mitotic phase, as describe previously. Total cells, 293T or HeLa, were lysed with GST-pulldown buffer (50 mM Hepes pH7.4, 150 mM NaCl, 10% glycerol, 1% Triton-X100, 1.5 mM MgC12, 1 mM EGTA, 100 mM NaF, 1 mM Na3VO4, 1 mM DTT and 0.5 μg/ml Leupeptin, 1.0 μg/ml Pepstatin, 0.2 mM PMSF) and incubated were incubated with 20 μl of agarose beads containing GST-Pin1 or GST at 4° C. for 2 hr, as described previously (Ryo et al., 2001). The precipitated proteins were washed three times with wash buffer containing and subjected to SDS-PAGE. For immunoprecipitation, cells were harvested at 24 hr after transfection and lysed with NP-40 lysis buffer (10 mM Tris HCl pH7.5, 100 mM NaCl, 0.5% NP-40, 1 mM Na3VO4, 0.5 μg/ml Leupeptin, 1.0 μg/ml Pepstatin, 0.2 mM PMSF). Cell lysates were incubated for 1 hr with Protein A/G Sepahrose/mouse IgG complexes.
Three truncation mutants of p65 were generated and subjected them to the GST-pulldown assay. […]

p65 [4] = test: In vivo ubiquitination assay of p65 in HeLa cells (His-ubiquitin, Ni-agarose pulldown); type: cell-based; details: His-tagged ubiquitin, MG-132 for 16 hr
Method: (F) Ubiquitination of p65 in vivo. HeLa cells expressing p65, UbcH5a and His-tagged ubiquitin or vector controls were treated with MG-132 or DMSO control for 16 hr, followed by lysis using sonication in a buffer containing 6M urea. Ubiquitin-conjugated proteins were captured with […] beads and subjected to immunoblot with anti-p65 antibody.
To examine which region of the p65 molecule can be ubiquitinated, different GST-p65 fragments (FIG. 3D) were incubated with S100 HeLa cells extracts, ubiquitin, E1 and UbcH5a or UbcH6, and then purified GST-p65 fragments using GST beads, followed by immunoblot with anti-ubiquitin antibodies. Although neither the fragment A nor C was ubiquitinated, fragment B, which contains the Pin1 binding Thr254-pro motif (FIG. 3E), was poly-ubiquitinated with UbcH5a, but not with UbcH6 (FIG. 6D). To examine whether other E2 enzymes could catalyze the ubiquitination of p65 in vitro, we incubated recombinant GST-p65 fragment B with in vitro ubiquitination assay using different E2 enzymes. Out of the 8 E2 enzymes examined, only UbcH5a effectively conjugated multiple ubiquitin molecules into p65 (FIG. 6E). […] However, no ubiquitinated p65 was detected in the absence of His ubiquitin and/or MG-132 (FIG. 6F), indicating the specificity of the in vivo ubiquitination assay.

Pin1 and p65 = test: GST-Pin1 pulldown of Xpress-tagged p65 from 293T cells; type: binding; details: 293T cells treated with TNF-α for 3 hrs vs PBS
Method: (D) Enhancement of Pin1 and p65 binding by TNF-α. 293T cells expressing Xpress-tagged p65 were treated with PBS or TNF-αfor 3 hrs, followed by GST-pull down experiment and immunoblot with anti-Xpress antibody.
as §1
Pin1 binds and isomerizes specific pSer/Thr-Pro motifs in certain phosphoproteins. To explore the molecular mechanism of NF-kB activation by Pin1, it was investigated as to whether any components of NF-kB or IkBα are Pin1 substrates. […]

NF-κB = test: NF-κB-Luc gene reporter assay in breast cancer cell lines after Pin1 inhibition; type: cell-based; details: BT20 (ER-negative) and MCF-7 (ER-positive) cells, both cell lines; 48 hrs after transfection
Description: (C) Inhibition of NF-κB activation and NF-κB DNA binding activity in breast cancer cell lines by downregulation of Pin 1. Two breast cancer cell lines were transfected with Pin1-specific or non-specific siRNA together with a NF-kB-Luc or TK-Luc reporter construct for 48 hrs, followed by assaying luciferase activity and Pin1 protein levels (insets) (C) or assaying NF-κB DNA binding activity by EMSA using NF-κB or OCT1 consensus oligonucleotides (D).
Approximately 60% confluent cells were transfected in triplicate in 12 well dishes with Effectene (Qiagen). Gene reporter assays were performed with Dual-Luciferase reporter assay system (Promega) at 24-36 hr after transfection as described previously (Wulf et al., 2001). pRL-TK (Promega) was used as an internal control for transfection efficiency. All results are expressed as X±SD of independent triplicate cultures. For gene reporter assays in breast cancer cell line, cells were transfected with pSuppressor Neo vector encoding Pin1 specific siRNA (5′-[…]-3′) or non-specific siRNA (5′-[…]-3′) together with Ig-kB luciferase construct and pRL-TK. After 48 hr, cells were lysed and subjected to gene reporter assay.
Given that the NF-κB activation is regulated by a series of phosphorylation events, it was investigated whether Pin1 is involved in this regulation. […]

In the case of `CC(C)C[C@@H](C=O)NC(=O)[C@H](CC(C)C)NC(=O)[C@H](CC(C)C)NC(=O)OCc1ccccc1` [MG-132] (Cbz-Leu-Leu-Leu-aldehyde), the “half-life of p65-T254A protein” value (p65-T254A [1]) is reported as “strikingly prolonged the half-life of p65-T254A protein”, the “stability of p65” value (p65 [2]) is reported as “could be stabilized” and the “stability of p65-T254A” value (p65-T254A [3]) is reported as “p65-T254A was stable”. The “poly-ubiquitination of p65” value (p65 [4]) was “p65 was substantially poly-ubiquitinated”.

In the case of TNF-α, the “increase of Pin1-p65 binding” value (Pin1 and p65) is reported as roughly 3 fold.

For “siRNA: pSuppressor Neo vector encoding Pin1 specific siRNA (5′-GCCACATCACTAACGCCAGC-3′) (expressed from pSuppressor Neo vector)”, the “transcriptional activity of NF-κB-Luc” value (NF-κB) was “significantly suppressed the transcriptional activity of NF-κB-Luc”.
